Measured values taken from PMC2546444, “Anti-Plasmodium Activity of Angiotensin II and Related Synthetic Peptides” (PLoS ONE, 2008).
Positions of bridges follow the written chain, without caps; N, C: chain ends. Residues, ends and D or L forms follow the SMILES beside them. No end group written: not given here.

Legend:
[1] = system: fresh human erythrocytes; experiment: Hemolytic activity; format: cell-based; details: peptide 0.19 to 100 μM; 0.4% human erythrocytes in PBS pH 7.4, 1 h at 37°C, read at 405 nm; triplicate
Protocol: Hemolytic activity was evaluated on fresh human erythrocytes washed three times with phosphate-buffered saline (PBS: 10 mM Na2HPO4, 1.8 mM K2-HPO4, pH 7.4, containing 140 mM NaCl and 2.7 mM KCl) ). Serial dilutions of the peptides with concentrations varying between 0.19–100 μM were incubated in Eppendorf tubes with a suspension of 0.4% erythrocytes in PBS. After 1 h at 37°C, the test tubes were centrifuged at 300g for 5 min at 5°C. Fifty microliter aliquots of the supernatants were transferred to 96-well plates and hemolysis was monitored at 405 nm using a microtiter plate reader. Negative and positive controls were prepared in PBS and in PBS supplemented with 0.1% SDS, respectively. Ang ll of the experiments was performed in triplicate.

[2] = 25% pooled non-heat inactivated human serum in PBS, 37°C; 20 μl of 10 mg/ml stock in 1 ml; sampling 0-120 min; LC/ESI-MS peak area; triplicates; data not shown
[3] = system: Ae.aegypti mosquitoes; experiment: Survival of mosquitoes injected with ang II; format: in vivo, Aedes aegypti; details: 0.5 μl ang II at 10-200 μM intrathoracically; chi-square test p>0.5; mean of three independent experiments
Protocol: Supplementary file pone.0003296.s001.tif: Figure S1 Survival of mosquitoes injected with different ang II concentrations. Ae.aegypti mosquitoes (10 females) were injected intrathoracically (0.5 μl) of ang II at 10 μM, 20 μM, 50 μM, 60 μM, 100 μM and 200 μM. After 24 hour the survival of mosquitoes was scored. […] Results are the mean of three independent experiments (20 mosquitoes/group), and bars represent standard errors of the mean. (0.18 MB TIF) Click here for additional data file.

Molecule	time to degradation in serum [min]	Hemolytic Activity [1]	time within which the peptide was degraded in serum [2] [min]	effect on mosquito survival after 24 hour [3]
CC[C@H](C)[C@H](NC(=O)[C@H](Cc1ccc(O)cc1)NC(=O)[C@@H](NC(=O)[C@H](CCCNC(=N)N)NC(=O)[C@@H]1CCCCNC(=O)C[C@H](N)C(=O)N[C@@H](CC(=O)O)C(=O)N1)C(C)C)C(=O)N[C@@H](Cc1c[nH]cn1)C(=O)N1CCC[C@H]1C(=O)N[C@@H](Cc1ccccc1)C(=O)O [VC1, Cyclo(0-1a)[Asp^0, endo-(Lys^1a)]-All] (H-DDKRVYIHPF-OH; lactam 1-3)	< 30	neg	–	–
DDKRVYIHPF [VC2, [Asp^0, endo-(Lys^1a)]-All]	< 30	neg	–	–
CC[C@H](C)[C@H](NC(=O)[C@H](Cc1ccc(O)cc1)NC(=O)[C@@H](NC(=O)[C@@H]1CCCCNC(=O)C[C@H](NC(=O)[C@@H](N)CC(=O)O)C(=O)N[C@@H](CCCNC(=N)N)C(=O)N1)C(C)C)C(=O)N[C@@H](Cc1c[nH]cn1)C(=O)N1CCC[C@H]1C(=O)N[C@@H](Cc1ccccc1)C(=O)O [VC3, Cyclo(1a-2a)[endo-(Asp^1a), endo-(Lys^2a)]-All] (H-DDRKVYIHPF-OH; lactam 2-4)	< 30	neg	–	–
CC[C@H](C)[C@H](NC(=O)[C@H](Cc1ccc(O)cc1)NC(=O)[C@@H]1CCCCNC(=O)C[C@H](NC(=O)[C@H](CCCNC(=N)N)NC(=O)[C@@H](N)CC(=O)O)C(=O)N[C@@H](C(C)C)C(=O)N1)C(=O)N[C@@H](Cc1c[nH]cn1)C(=O)N1CCC[C@H]1C(=O)N[C@@H](Cc1ccccc1)C(=O)O [VC5, Cyclo(2a-3a)[endo-(Asp^2a), endo-(Lys^3a)]-All] (H-DRDVKYIHPF-OH; lactam 3-5)	< 30	neg	–	–
DRDVKYIHPF [VC6, [endo-(Asp^2a), endo-(Lys^3a)]-All]	< 30	neg	–	–
DDRKVYIHPF [VC4, [endo-(Asp^1a), endo-(Lys^2a)]-All]	< 30	neg	–	–
CC[C@H](C)[C@H](NC(=O)[C@H](Cc1ccc(O)cc1)NC(=O)[C@@H](NC(=O)[C@H](CCCNC(=N)N)NC(=O)[C@@H](N)CC(=O)O)C(C)C)C(=O)N[C@@H](Cc1cnc[nH]1)C(=O)N1CCC[C@H]1C(=O)N[C@@H](Cc1ccccc1)C(=O)O [ang II, Angiotensin II]	–	neg	≤ 30	no significant effects
